Reference: patent publication US20240009122A1, “Small Molecule Formulation” (Dialectic Therapeutics, Inc., priority 2020, published 2024)

Assay: Solubility of Compound 1 (statement)
Assay type: physicochemical
Source text: While Compound 1 is an example of a small molecule with a number of polar functional groups. […] These organic polar solvents, however, are not typically pharmaceutically acceptable for use in drug formulation.

In the case of Cc1ncsc1-c1ccc([C@H](C)NC(=O)[C@@H]2C[C@@H](O)CC2C(=O)[C@@H](NC(=O)CCCCCC(=O)N2CCN(CC[C@H](CSc3ccccc3)Nc3ccc(S(=O)(=O)NC(=O)c4ccc(N5CCN(CC6=C(c7ccc(Cl)cc7)CCC(C)(C)C6)CC5)cc4)cc3S(=O)(=O)C(F)(F)F)CC2)C(C)(C)C)cc1 (some centres unmarked) [Compound 1], the “Solubility in organic polar solvents” value is reported as “sufficiently soluble” and the “Solubility in water or water based solvent mixtures” value is reported as “not sufficiently soluble”.
